The text below walks through data of ChEMBL document CHEMBL1201862, “PubChem BioAssay data set” (2004).

Calls of active or inactive are those of the source.

The target of assay [1] is Beta-2 adrenergic receptor (Homo sapiens, UniProt P07550). Briefly: beta2AR agonists driving receptor internalization, dose response, cell-based, FAP fluorogen, flow cytometry, cherry pick 1 (AID 588763). The class given is functional.
The nature of a further assay: cells. In kind it is functional.
The test system of assay [2] is HEK293. Briefly: inhibitors of LMP1-driven NF-kB reporter, dose response, cell-based, HEK293, luciferase, cherry-pick (AID 588343). As to conditions: Homo sapiens. In kind it is functional.
Assay [3] concerns HEK293. Briefly: optical interference in Abeta FP readout, dose response, artefact control for IDE activator project, biochemical, fluorescence polarization (AID 588442). The class given is functional, cell-based. As to conditions: Homo sapiens.
The subject of another assay is Streptococcus. Briefly: Group A Streptococcus viability loss, dose response, counter-screen for streptokinase expression inhibitor project, luminescence, BacTiterGlo (AID 1915).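 Also: potency for reduction of bacterial viability or growth.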 In kind it is functional, organism-based.
Assay [4] is described as follows: growth suppression of beta-catenin-knockout colon cells, dose response, cell-based, HCT116, human colon tumor (AID 1045).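 Also: HCT116 colon tumor cells with beta catenin knocked out; cells exposed to compound for 60 hours.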 In kind it is functional.
In assay [5] the target is T1, Insulin-degrading enzyme (Homo sapiens, UniProt P14735).
T1 sequence (P14735 whole entry): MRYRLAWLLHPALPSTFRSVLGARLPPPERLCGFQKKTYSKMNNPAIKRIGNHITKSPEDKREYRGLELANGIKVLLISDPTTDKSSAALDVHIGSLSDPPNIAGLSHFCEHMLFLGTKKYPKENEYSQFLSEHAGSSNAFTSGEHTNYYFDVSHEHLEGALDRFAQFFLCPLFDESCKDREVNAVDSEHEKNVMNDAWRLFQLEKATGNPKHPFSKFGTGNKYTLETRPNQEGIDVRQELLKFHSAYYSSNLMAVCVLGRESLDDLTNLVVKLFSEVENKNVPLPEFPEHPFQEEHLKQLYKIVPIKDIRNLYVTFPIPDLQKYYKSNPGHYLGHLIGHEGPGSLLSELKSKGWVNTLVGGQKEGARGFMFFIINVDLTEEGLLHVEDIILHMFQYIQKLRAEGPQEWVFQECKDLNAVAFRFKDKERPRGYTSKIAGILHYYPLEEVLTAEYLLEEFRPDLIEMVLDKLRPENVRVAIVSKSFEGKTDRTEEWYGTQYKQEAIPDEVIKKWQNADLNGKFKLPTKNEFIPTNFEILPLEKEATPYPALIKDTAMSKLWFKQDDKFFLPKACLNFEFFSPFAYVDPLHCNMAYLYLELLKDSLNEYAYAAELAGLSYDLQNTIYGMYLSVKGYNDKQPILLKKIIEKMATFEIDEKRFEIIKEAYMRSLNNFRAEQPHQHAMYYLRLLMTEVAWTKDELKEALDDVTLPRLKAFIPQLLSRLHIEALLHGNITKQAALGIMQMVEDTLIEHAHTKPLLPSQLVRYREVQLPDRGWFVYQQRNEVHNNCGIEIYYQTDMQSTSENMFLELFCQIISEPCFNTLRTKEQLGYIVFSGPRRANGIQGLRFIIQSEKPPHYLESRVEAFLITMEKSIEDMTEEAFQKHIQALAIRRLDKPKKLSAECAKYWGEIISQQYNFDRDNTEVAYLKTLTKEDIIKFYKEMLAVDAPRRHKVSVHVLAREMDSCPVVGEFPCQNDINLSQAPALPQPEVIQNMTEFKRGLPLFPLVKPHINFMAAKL
Briefly: activators of endogenous IDE in HEK cells, dose response, cell-based, fluorescence polarization (AID 588439). In kind it is functional.

Assay [6] can be described thus: inhibitors of intracellular T. cruzi replication, confirmation, NIH3T3 host cells, beta-gal luminescence (AID 2044).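 Also: intracellular parasites grown in NIH/3T3 mouse fibroblasts as host cells; luminescent beta-galactosidase reporter signal from transgenic T. cruzi replicating inside host cells; inhibitors lower the luminescence signal.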 In kind it is functional, cell-based.
Assay [7] in a line: cytotoxicity toward NIH3T3 fibroblasts, dose response, counter-screen, cell-based, ATP luminescence, mouse fibroblasts (AID 2010).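 Also: cells exposed to compound for about 90 hours before reading.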 In kind it is functional.
The target in assay [8] is T1, Insulin-degrading enzyme. Briefly: activators of recombinant IDE enzyme, dose response, counter-screen for IDE activator project, biochemical, fluorescence polarization (AID 588681).
Assay [9] can be described thus: Luminescence Cell-Based Dose Response HTS to Identify Inhibitors of 5'UTR Stem-Loop Driven Prion Protein mRNA Translation in H4 Neuroglioblastoma Cells. [Related pubchem assays: 1827 (Project Summary), 1813 (Primary HTS)]. The class given is functional.
A short description of assay [10]: control 3'UTR Renilla luciferase suppression, dose response, counter-screen for Shn3 inhibitor project, cell-based, Clone20-Shn3RL, cherry-picked (AID 624133). The class given is functional.
A short description of assay [11]: Shn3 3'UTR reporter inhibitors, dose response, cell-based, Clone20 osteoblasts, firefly luciferase, cherry-picked (AID 624132).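 Also: firefly luciferase luminescence from reporter carrying the Shn3 3'UTR in osteoblasts.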 In kind it is functional.
Assay [12] can be described thus: inhibitors of SNCA 5'UTR-driven reporter translation, confirmation, H4 neuroglioma cells, luminescence (AID 1988). In kind it is functional, cell-based.
Assay [13] concerns Streptococcus sp. 'group A'. Briefly: growth inhibition of control SK(-) GAS strain, dose response, counter-screen for streptokinase expression inhibitor project, luminescence, kanamycin, BacTiterGlo, confirmation (AID 1900). In kind it is functional, organism-based.
In the next assay the test system is INS1. Briefly: beta cell apoptosis inhibitors, cytokine rescue, dose response, luminescence, retest (AID 449756).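 Also: cell death triggered by IL-1 beta plus TNF-alpha plus IFN-gamma mixture; protective hits raise ATP signal compared with cytokine alone wells.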 The class given is functional, cell-based. As to conditions: Rattus norvegicus.
Another assay concerns the target T2, Streptokinase A (Streptococcus pyogenes serotype M1, UniProt P10520).
T2 sequence (P10520 whole entry): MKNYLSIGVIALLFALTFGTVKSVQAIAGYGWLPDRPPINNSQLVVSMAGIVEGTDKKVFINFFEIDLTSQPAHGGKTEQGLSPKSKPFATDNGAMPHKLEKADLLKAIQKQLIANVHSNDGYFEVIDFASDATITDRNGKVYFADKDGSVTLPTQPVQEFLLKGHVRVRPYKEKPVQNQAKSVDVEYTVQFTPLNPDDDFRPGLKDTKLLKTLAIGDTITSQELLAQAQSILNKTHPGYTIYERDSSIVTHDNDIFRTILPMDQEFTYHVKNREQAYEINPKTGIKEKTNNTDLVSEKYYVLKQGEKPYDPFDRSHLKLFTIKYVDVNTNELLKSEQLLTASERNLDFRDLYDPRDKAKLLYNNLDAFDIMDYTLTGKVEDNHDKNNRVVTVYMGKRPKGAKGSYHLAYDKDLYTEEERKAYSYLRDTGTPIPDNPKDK
Briefly: S. pyogenes streptokinase expression inhibitors, potency, dose response, plasminogen activation absorbance, OD405 (AID 1914).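 Also: secreted streptokinase activity via plasminogen activation per viability signal from cell pellet.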 In kind it is functional, Streptococcus pyogenes M1 GAS.

Assay [14] in a line: growth suppression of PTEN-null colon cells, dose response, cell-based, HCT116 PTEN knockout (AID 1047).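 Also: HCT116 colon tumor cells with PTEN knocked out; cells exposed to compound for 60 hours before readout; potency for loss of cell viability measured by luminescence.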 The class given is functional.
In assay [15] the test system is HEK293. Briefly: HEK cell cytotoxicity by LDH release, dose response, cytotoxicity control for IDE activator project, fluorescence, HEK cells (AID 588440).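 Also: cytotoxicity by LDH release measuring loss of membrane integrity.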 The conditions noted are these: Homo sapiens. The class given is functional, cell-based.
Assay [16] is described as follows: inhibitors of firefly luciferase expression or activity, dose response, H4 neuroglioma cells, luminescence (AID 1990). In kind it is functional, cell-based.
Assay [17] can be described thus: HepG2 cell cytotoxicity, dose response, cytotoxicity control for Shn3 inhibitor project, CellTiter-Glo, cherry-picked (AID 624134). The class given is functional, cell-based.
Assay [18] deals with HEK293. Briefly: cells. The class given is functional, cell-based. As to conditions: Homo sapiens.
The subject of assay [19] is HEK293. Briefly: NOD1 signaling inhibitors, primary screen, cell-based, luminescence, uHTS (AID 1578). In kind it is functional. The conditions noted are these: Homo sapiens.
Assay [20] concerns HEK293. Briefly: cells. In kind it is functional, cell-based. As to conditions: Homo sapiens. The source holds these as a separate data set.
A further assay addresses Protein Wnt-3a (Mus musculus, UniProt P27467). Briefly: Wnt3a-driven reporter signaling inhibition, dose response, selectivity assay for Gli-SUFU antagonist project, Wnt-LIGHT cells, luminescence (AID 651570).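 Also: Wnt-LIGHT reporter cells stimulated with conditioned medium from Wnt3a-producing cells.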 In kind it is functional. As to conditions: read-out: IC50_Mean.
In assay [21] the target is Nucleotide-binding oligomerization domain-containing protein 2 (Homo sapiens, UniProt Q9HC29). Briefly: NOD2 signaling inhibitors, cell-based, luminescence, uHTS, HEK293 (AID 1566). The class given is functional.
Assay [22] has as its system HEK293. Briefly: NOD2 signaling inhibitors in MDP-stimulated cells, cell-based, uHTS, luminescence (AID 2001). The conditions noted are these: Homo sapiens. The class given is functional.
The subject of assay [23] is HEK293. Briefly: cells. The class given is functional, cell-based. The conditions noted are these: Homo sapiens. This is another data set of the same source.
Assay [24] addresses Adenosylmethionine-8-amino-7-oxononanoate aminotransferase (Mycobacterium tuberculosis, UniProt P9WQ81). Briefly: Mycobacterium tuberculosis BioA enzyme inhibitor Measured in Biochemical System Using Plate Reader - 2163-02_Inhibitor_Dose_CherryPick_Activity. The class given is functional, Mycobacterium tuberculosis UT205.
In assay [25] the target is Beta-lactamase (Salmonella choleraesuis (strain SC-B67), UniProt Q5J463). Briefly: Epi-absorbance-based counterscreen for selective VIM-2 inhibitors: dose response biochemical high throughput screening assay to identify inhibitors of TEM-1 serine-beta-lactamase.
Assay [26] deals with T3, Beta-lactamase (Pseudomonas aeruginosa, UniProt Q79MP6). Briefly: […] counterscreen for selective VIM-2 inhibitors: dose response biochemical high throughput screening assay to identify inhibitors of IMP-1 metallo-beta-lactamase.
The target in assay [27] is T3, Beta-lactamase. Briefly: IMP-1 metallo-beta-lactamase inhibitors, dose response, selectivity assay for VIM-2 inhibitor project, biochemical, epi-absorbance (AID 1920).

Chain of Adenosylmethionine-8-amino-7-oxononanoate aminotransferase (P9WQ81 whole entry): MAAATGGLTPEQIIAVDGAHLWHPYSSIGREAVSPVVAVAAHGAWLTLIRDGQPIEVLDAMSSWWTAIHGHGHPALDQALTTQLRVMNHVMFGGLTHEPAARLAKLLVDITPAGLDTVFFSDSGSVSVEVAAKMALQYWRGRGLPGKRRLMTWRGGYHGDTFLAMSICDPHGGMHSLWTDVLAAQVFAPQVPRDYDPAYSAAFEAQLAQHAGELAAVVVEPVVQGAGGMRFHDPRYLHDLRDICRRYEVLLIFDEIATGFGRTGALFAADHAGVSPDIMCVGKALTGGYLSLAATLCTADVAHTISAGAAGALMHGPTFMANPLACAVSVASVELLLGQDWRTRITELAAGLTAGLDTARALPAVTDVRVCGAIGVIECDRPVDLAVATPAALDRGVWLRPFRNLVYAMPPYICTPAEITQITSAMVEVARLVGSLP
Chain of Beta-2 adrenergic receptor (P07550 whole entry): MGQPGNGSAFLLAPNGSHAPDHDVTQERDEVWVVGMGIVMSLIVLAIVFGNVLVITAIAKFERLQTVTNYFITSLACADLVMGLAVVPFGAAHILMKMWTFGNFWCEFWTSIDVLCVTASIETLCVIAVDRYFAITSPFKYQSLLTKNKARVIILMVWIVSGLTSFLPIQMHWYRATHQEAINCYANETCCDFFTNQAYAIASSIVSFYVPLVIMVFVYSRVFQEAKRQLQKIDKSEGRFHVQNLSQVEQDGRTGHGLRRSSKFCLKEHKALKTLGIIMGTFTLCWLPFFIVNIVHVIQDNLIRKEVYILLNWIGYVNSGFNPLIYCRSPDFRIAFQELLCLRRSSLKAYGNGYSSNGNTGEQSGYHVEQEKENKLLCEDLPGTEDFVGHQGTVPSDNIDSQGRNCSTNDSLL
T3 sequence (Q79MP6 whole entry): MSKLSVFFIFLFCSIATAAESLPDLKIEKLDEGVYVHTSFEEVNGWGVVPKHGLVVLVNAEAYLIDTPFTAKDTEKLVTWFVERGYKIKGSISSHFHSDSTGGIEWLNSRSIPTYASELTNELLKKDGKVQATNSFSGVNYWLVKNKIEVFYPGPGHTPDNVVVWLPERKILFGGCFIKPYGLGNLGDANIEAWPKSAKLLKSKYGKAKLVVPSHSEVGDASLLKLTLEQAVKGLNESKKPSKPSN
Chain of Nucleotide-binding oligomerization domain-containing protein 2 (Q9HC29 whole entry, the tested form may be a part): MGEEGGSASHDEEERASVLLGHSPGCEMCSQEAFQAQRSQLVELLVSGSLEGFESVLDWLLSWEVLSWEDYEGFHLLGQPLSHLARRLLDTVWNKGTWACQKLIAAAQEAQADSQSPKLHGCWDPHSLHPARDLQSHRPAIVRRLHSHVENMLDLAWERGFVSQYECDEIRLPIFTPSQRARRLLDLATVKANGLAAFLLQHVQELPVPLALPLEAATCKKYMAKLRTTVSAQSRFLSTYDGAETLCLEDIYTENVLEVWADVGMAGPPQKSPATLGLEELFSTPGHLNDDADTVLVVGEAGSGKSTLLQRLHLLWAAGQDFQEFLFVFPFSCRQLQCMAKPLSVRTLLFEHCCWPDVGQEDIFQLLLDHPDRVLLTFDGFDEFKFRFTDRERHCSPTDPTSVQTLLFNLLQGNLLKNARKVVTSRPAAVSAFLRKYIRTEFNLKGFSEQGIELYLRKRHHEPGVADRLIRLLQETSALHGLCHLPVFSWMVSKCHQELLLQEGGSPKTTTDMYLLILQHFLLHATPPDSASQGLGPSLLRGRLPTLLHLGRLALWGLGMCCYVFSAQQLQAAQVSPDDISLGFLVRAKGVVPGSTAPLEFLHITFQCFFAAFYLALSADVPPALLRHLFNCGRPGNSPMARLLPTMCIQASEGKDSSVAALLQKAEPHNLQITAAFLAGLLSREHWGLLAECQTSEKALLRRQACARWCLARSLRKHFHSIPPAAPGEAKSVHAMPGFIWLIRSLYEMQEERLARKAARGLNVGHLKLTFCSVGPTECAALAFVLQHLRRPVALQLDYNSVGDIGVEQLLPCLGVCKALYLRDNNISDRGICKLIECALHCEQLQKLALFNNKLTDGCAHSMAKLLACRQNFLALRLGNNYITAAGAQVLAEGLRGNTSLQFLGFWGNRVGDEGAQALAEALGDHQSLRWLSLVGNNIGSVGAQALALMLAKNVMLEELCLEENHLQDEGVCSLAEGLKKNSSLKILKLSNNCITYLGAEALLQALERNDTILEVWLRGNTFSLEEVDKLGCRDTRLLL
Chain of Beta-lactamase (Salmonella choleraesuis (strain SC-B67), UniProt Q5J463) (Q5J463 whole entry): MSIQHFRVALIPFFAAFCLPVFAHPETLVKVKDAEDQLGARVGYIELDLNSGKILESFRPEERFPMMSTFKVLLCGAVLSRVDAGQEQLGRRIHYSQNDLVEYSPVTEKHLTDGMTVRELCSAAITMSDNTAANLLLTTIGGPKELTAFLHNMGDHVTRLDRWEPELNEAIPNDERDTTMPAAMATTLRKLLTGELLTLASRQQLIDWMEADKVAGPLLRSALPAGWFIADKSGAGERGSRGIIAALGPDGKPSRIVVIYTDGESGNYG
Chain of Protein Wnt-3a (P27467 whole entry, the tested form may be a part): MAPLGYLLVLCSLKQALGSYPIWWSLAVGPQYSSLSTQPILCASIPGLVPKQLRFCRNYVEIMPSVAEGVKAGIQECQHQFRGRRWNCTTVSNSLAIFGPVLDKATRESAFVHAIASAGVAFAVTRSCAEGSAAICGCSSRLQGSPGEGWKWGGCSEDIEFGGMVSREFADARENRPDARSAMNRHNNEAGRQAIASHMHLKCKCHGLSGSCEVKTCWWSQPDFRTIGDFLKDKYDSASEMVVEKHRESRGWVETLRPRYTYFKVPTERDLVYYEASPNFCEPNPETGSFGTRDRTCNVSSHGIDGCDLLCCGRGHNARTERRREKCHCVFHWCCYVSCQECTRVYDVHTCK

For the molecule `COc1cccc(OCc2nnc(-c3cccs3)o2)c1`, the EC50 in assay [1] was 10.7 µM (inactive). In the assay “cells”, the IC50 is 5.57 µM (active).

For the molecule `COc1ccc(Cn2c(SCc3cc(C)ccc3C)nc3cc(OC)c(OC)cc3c2=N)cc1`, the AC50 in the assay with HEK293 [2] was 7.9 µM (active); in assay [10], 9.31 µM (active); in assay [11], 7.91 µM (active); with INS1 it was 3.48 µM (active); in assay [17] it was 11.2 µM (active). The EC50 in the assay with HEK293 [3] was > 56 µM (inactive); in the assay with Streptococcus it was 8.37 µM (active); in [4], 1.88 µM (active); in assay [1], 83.4 µM (inactive); on Insulin-degrading enzyme [5], 6.95 µM (active); in assay [6], 1.19 µM (active). Moreover, the EC50 was 9.83 µM (active) in assay [7]; > 54.7 µM (inactive) at Insulin-degrading enzyme [8]; 30.7 µM (active) in assay [9]; 10.8 µM (active) in assay [12]; 5.16 µM (active) in assay [13]; 6.67 µM (active) on Streptokinase A. Also, the 50% effective concentration (EC50) in assay [14] was 2.47 µM (active); in assay [16], 24.1 µM (active). Also, the IC50 in the assay with HEK293 [15] is 10.7 µM (inactive).

As for `C=CCn1c(O)c(N=NC(=S)Nc2cccc(C)c2)c2ccccc21`, the IC50 in the assay with HEK293 [18] is > 20 µM (inactive); in the assay with HEK293 [20], 2.97 µM (active); on Protein Wnt-3a it was 29.2 µM (inactive); in the assay on HEK293 [22] it was 1.18 µM (active); in the assay with HEK293 [23], > 20 µM (inactive). In the assay on HEK293 [2], the AC50 is 1.46 µM (active). The concentration giving a half-maximal response (EC50) with HEK293 [19] is 1.09 µM (active); in assay [6], 0.558 µM (active); in [7], 3.44 µM (active); in [21] it was 16.3 µM (active).

As to `O=C(Nc1cccnc1)c1ccc(N2CCOCC2)c([N+](=O)[O-])c1`, the AC50 in assay [24] is 6.8 µM (active).

For `Cc1ccc(-n2c(-c3nn(C)c(C)c3Cl)n[nH]c2=S)cc1`, the IC50 on Beta-lactamase [25], on Beta-lactamase [26] and at Beta-lactamase [27] was > 59.6 µM (inactive) throughout.

For the molecule `Cc1nn(CCC(=O)O)c2nc(-c3cccnc3)cc(C(F)(F)F)c12`, the AC50 in assay [24] is 10.2 µM (active).
